# From PMC12714101, “CD160-Derived Peptide as a Bidirectional Inhibitor Toward Immune Checkpoints BTLA/HVEM and HVEM/LIGHT” (Journal of Medicinal Chemistry, 2025)
# Where a SMILES comes first, the peptide text is derived from it.
# How the values were obtained:
# BTLA/HVEM complex = biological target: T1, BTLA/HVEM complex (Homo sapiens, UniProt Q92956); assay: ELISA inhibition of BTLA/HVEM complex formation; type: biochemical; conditions: peptide 16.67 μM, immobilized HVEM-His, BTLA-Fc 5 μg/mL, PBS-T, 37 °C, mean of three independent experiments
# T1 construct: purchased ACROBiosystems HVM-H52E9 (HVEM-His); BTA-H5255 (BTLA-Fc)
# T1 sequence (Q92956 39-202 limits assumed): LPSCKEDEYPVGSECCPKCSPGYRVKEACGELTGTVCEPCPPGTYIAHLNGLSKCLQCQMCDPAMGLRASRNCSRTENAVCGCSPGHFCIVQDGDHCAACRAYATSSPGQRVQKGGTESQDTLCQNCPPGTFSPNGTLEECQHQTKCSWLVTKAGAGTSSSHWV
# Procedure: In the subsequent stage of the study, the potential of the obtained compounds to inhibit the interaction between BTLA and HVEM proteins was evaluated using ELISA, following the methodology described in our previous studies. , HVEM was immobilized on the plate and incubated with peptides at three different concentrations, followed by the addition of Fc-tagged BTLA. Detection was carried out using horseradish peroxidase (HRP) conjugated with anti-human IgG and 3,3′,5,5′-tetramethylbenzidine (TMB) as a substrate. Signal intensity was directly proportional to the amount of BTLA bound to HVEM and inversely proportional to the inhibitory activity of the tested peptides. As a control, BTLA and HVEM were incubated in the absence of peptides.
# Recombinant human HVEM protein with a His tag was purchased from ACROBiosystems, Newark, DE, USA (no. HVM-H52E9). Recombinant human protein BTLA-Fc and LIGHT-Fc were also purchased from ACROBiosystems, Newark, DE, USA (no. BTA-H5255 and no. LIT-H5269).
# ELISA was performed using transparent 96-well NUNC Maxisorp plates (Thermo Fisher Scientific, Waltham, MA, USA). In the first step, HVEM-His, dissolved in PBS at a concentration of 5 μg/mL (100 μL/well), was immobilized on the plate by overnight incubation at 4 °C. Wells were then blocked with 5% bovine serum albumin (BSA) in PBS containing 0.05% Tween 20 (PBS-T) (200 μL/well). Next, peptides dissolved in PBS-T at concentrations of 150, 50, and 16.67 μM were added to the wells (100 μL/well). Following this, BTLA-Fc in PBS-T at a concentration of 5 μg/mL (100 μL/well) was applied. In the next step, goat anti-human IgG antibody conjugated with the HRP (Bio-Rad Laboratories, Hercules, CA, USA) in PBS-T at a ratio of 1:30,000 (v/v) was added (100 μL/well). Colorimetric detection was performed by adding 100 μL of TMB substrate (Thermo Fisher Scientific, Waltham, MA, USA) to each well and incubating the plate in the dark. At each stage, plates were incubated at 37 °C with continuous shaking for 1 h (except TMB, which was incubated for 15 min). After each incubation, wells were washed five times with PBS-T. Absorbance was measured using an Infinite M200 Pro Reader (Tecan Group Ltd., Männedorf, Switzerland) at wavelengths of 650 nm (measurement wavelength) and 492 nm (reference wavelength). Inhibition assays for the HVEM/LIGHT complex were conducted using the same approach, except that LIGHT was used instead of BTLA. The BTLA/HVEM and HVEM/LIGHT complexes without peptides served as controls. Inhibition percentages were calculated based on the assumption that PBS-T has no effect on the formation of BTLA/HVEM or HVEM/LIGHT complexes. Each ELISA was conducted in at least three independent replicates. The data were analyzed using GraphPad Prism 8 software (San Diego, CA, USA).
# HVEM/LIGHT interaction = assay: Cellular reporter assay, HVEM reporter cells (JE6.1-NF-κB::eGFP) stimulated with TCS LIGHT; type: cell-based, human; conditions: 24 h coculture, three experiments
# Procedure: These findings prompted us to investigate whether the peptide is also capable of inhibiting the binding of HVEM to its ligand–the LIGHT protein. Accordingly, ELISA and cell-based assays were conducted under the same conditions as those used for the BTLA/HVEM complex, with the exception that LIGHT was used instead of BTLA.
# Cellular studies were performed in the same procedure as we described previously for gD- and BTLA-derived peptides. , The peptides were dissolved in the medium, and their final concentrations in wells were 150, 50, and 16,7 μM. Briefly, reporter cells expressing HVEM (JE6.1-NF-κB::eGFP) (5 × 10^4 cells/well) were preincubated with peptides for 30 min in a 96-well flat-bottom plate. Subsequently, the second cell line expressing BTLA (TCS BTLA) or LIGHT (TCS LIGHT) (2 × 10^4 cells/well) was added and cocultured for 24 h at 37 °C in an atmosphere of 5% CO2. Next, an APC-conjugated mCD45.2 antibody to exclude TCS from the reporter cells was added. The expression of the reporter gene (eGFP) was measured via flow cytometry using a CytoFLEX flow cytometer (Beckman Coulter Inc., Brea, CA, USA), and the results were analyzed using FlowJo v10.10 (FlowJo LLC, Ashland, OR, USA). The data were analyzed using GraphPad Prism 8 software (San Diego, CA, USA).
smiles,measurement,setting,value
"CC[C@@H]1NC(=O)[C@@H](NC(=O)[C@H](CCC(N)=O)NC(=O)[C@H](Cc2ccc(O)cc2)NC(C)=O)CSSC[C@@H](C(=O)N[C@@H](Cc2c[nH]cn2)C(=O)N[C@@H](Cc2ccccc2)C(=O)N[C@@H](Cc2ccccc2)C(N)=O)NC(=O)[C@H](CCC(N)=O)NC(=O)[C@H](CC(C)C)NC(=O)[C@H](CCCNC(=N)N)NC(=O)[C@H]([C@@H](C)CC)NC(=O)CNC(=O)[C@H](CO)NC(=O)[C@H](CCCCN)NC(=O)[C@H](CCC(N)=O)NC(=O)[C@H](CO)NC(=O)[C@H](CCCNC(=N)N)NC(=O)[C@H](C)NC1=O [A5, CD160(110–128) ^(C113X,G125C)] (HELM PEPTIDE1{[ac].Y.Q.C.[Abu].A.R.S.Q.K.S.G.I.R.L.Q.C.H.F.F.[am]}$PEPTIDE1,PEPTIDE1,4:R3-17:R3$$$V2.0)",inhibition at 16.67 µM,BTLA/HVEM complex,6.24%
same,"Inhibition of NF-κB activation, HVEM/LIGHT cell-based assay, 16.67 μM",HVEM/LIGHT interaction; peptide 16.67 μM,13%
same,"Inhibition of NF-κB activation, HVEM/LIGHT cell-based assay, 50 μM",HVEM/LIGHT interaction; peptide 50 μM,34%
same,"Inhibition of NF-κB activation, HVEM/LIGHT cell-based assay, 150 μM",HVEM/LIGHT interaction; peptide 150 μM,72%
